According to patent US11149033B2, “Heteroaryl compound, enantiomer, diastereomer or pharmaceutically acceptable salt thereof, and antiviral composition containing same as active ingredient” (priority 2016, dated 2021):

Legend:
[1] = system: A/Perth/16/2009 (H3N2); experiment: Antiviral activity (drug efficacy evaluation by concentration) against A/Perth/16/2009 (H3N2); assay type: cell-based, A type influenza virus; conditions: Influenza A virus, H3N2; read-out: EC50
[2] = system: B/Florida/04/2006; experiment: Antiviral activity (drug efficacy evaluation by concentration) against B/Florida/04/2006; assay type: cell-based, B type influenza virus
[3] = in vitro
[4] = system: A/California/07/2009 (H1N1); experiment: Antiviral activity (drug efficacy evaluation by concentration) against A/California/07/2009 (H1N1); assay type: cell-based, A type influenza virus; conditions: Influenza A virus, H1N1; read-out: EC50
[5] = CC50, third EC50/CC50 column pair (c7), beside the EC50 of c6

| Structure (SMILES) | melting point | EC50 [1] | EC50 [2] | CC50 ([3]; CC50, beside the EC50 of c2) | CC50 ([3]; CC50, beside the EC50 of c4) | CC50 [3, 5] | EC50 [4] |
| --- | --- | --- | --- | --- | --- | --- | --- |
| Fc1ccc(/C=C/c2nnc(Cc3ccc(Br)cc3)o2)c(Cl)c1 [Compound 86, (E)-2-(4-bromobenzyl)-5-(2-chloro-4-fluorostyryl)-1,3,4-oxadiazole] | 147.9 °C | 45.7 µM | 42 µM | > 50 µM | > 50 µM | > 50 µM | 2.7 µM |
| Fc1ccc(/C=C/c2nnc(Nc3ccc(Br)cc3)o2)c(Cl)c1 [Compound 87, (E)-N-(4-bromophenyl)-5-(2-chloro-4-fluorostyryl)-1,3,4-oxadiazol-2-amine] | 218.7 °C | 1.97 µM | 2.52 µM | > 50 µM | > 50 µM | > 50 µM | 2.74 µM |
| Cc1ccccc1CCc1nnc(Nc2ccc(Br)c(F)c2)o1 [Compound 91, N-(4-bromo-3-fluorophenyl)-5-(2-methylphenethyl)-1,3,4-oxadiazol-2-amine] | 151.6 °C | 8.3 µM | 19.3 µM | 6.03 µM | 15.7 µM | 6.63 µM | 9.13 µM |
| Brc1ccc(Cc2nnc(/C=C/c3ccccc3C3CCCCC3)o2)cc1 [Compound 111, 2-(4-bromobenzyl)-5-(2-cyclohexylstyryl)-1,3,4-oxadiazole] | 117.1 °C | 34.3 µM | 41.3 µM | 32.5 µM | > 50 µM | > 50 µM | 31.8 µM |
| Brc1ccc(Nc2nnc(/C=C/c3ccccc3C3CCCCC3)o2)cc1 [Compound 116, (E)-N-(4-bromophenyl)-5-(2-cyclohexylstyryl)-1,3,4-oxadiazol-2-amine] | 228.3 °C | 35.1 µM | 34.5 µM | > 50 µM | > 50 µM | – | 36.2 µM |
| COc1ccccc1/C=C/c1nnc(Nc2ccc(Br)cc2)o1 [Compound 120, (E)-N-(4-bromophenyl)-5-(2-methoxystyryl)-1,3,4-oxadiazol-2-amine] | 232.4 °C | 18.1 µM | 17.4 µM | > 50 µM | > 50 µM | – | 23.1 µM |
| Cc1ccccc1CCc1nnc(Nc2ccc(F)c(Cl)c2)o1 [Compound 122, N-(3-chloro-4-fluorophenyl)-5-(2-methylphenethyl)-1,3,4-oxadiazol-2-amine] | 87 °C | 43.9 µM | > 50 µM | > 50 µM | > 50 µM | – | 37.4 µM |
| Cc1ccccc1CCc1nnc(Nc2ccc(C(F)(F)F)cc2)o1 [Compound 123, 5-(2-methylphenethyl)-N-(4-(trifluoromethyl)phenyl)-1,3,4-oxadiazol-2-amine] | 164.5 °C | 3.61 µM | 11 µM | 35 µM | > 50 µM | > 50 µM | 14.2 µM |
| Brc1ccc(Cc2nnc(/C=C/c3ccccc3-c3ccccc3)o2)cc1 [Compound 126, (E)-2-(2-([1,1′-biphenyl]-2-yl)vinyl)-5-(4-bromobenzyl)-1,3,4-oxadiazole] | 87.4 °C | > 50 µM | > 50 µM | > 50 µM | > 50 µM | > 50 µM | 45.7 µM |
| Brc1ccc(Cc2nnc(/C=C/c3ccccc3Oc3ccccc3)o2)cc1 [Compound 127, (E)-2-(4-bromobenzyl)-5-(2-phenoxystyryl)-1,3,4-oxadiazole] | 125.5 °C | 24.4 µM | 16 µM | > 50 µM | > 50 µM | > 50 µM | 34.9 µM |
| CC(C)c1ccccc1/C=C/c1nnc(Cc2cccc(Br)c2)o1 [Compound 130, 2-(3-bromobenzyl)-5-(2-isopropylstyryl)-1,3,4-oxadiazole] | 79.3 °C | 32.8 µM | 36.2 µM | > 50 µM | > 50 µM | > 50 µM | 42.4 µM |
| CC(C)c1ccccc1/C=C/c1nnc(Cc2cccc3ccccc23)o1 [Compound 132, 2-(2-isopropylstyryl)-5-(naphthalen-1-ylmethyl)-1,3,4-oxadiazole] | 148.1 °C | 1.14 µM | 1.58 µM | 10.8 µM | 12.2 µM | 13.6 µM | 1.52 µM |
| CC(C)c1cccc(/C=C/c2nnc(Cc3ccc(Br)cc3)o2)c1 [Compound 151, 2-(4-bromobenzyl)-5-(3-isopropylstyryl)-1,3,4-oxadiazole] | 61.8 °C | 6.38 µM | 6.39 µM | > 50 µM | > 50 µM | > 50 µM | 21.3 µM |
| Fc1ccc(/C=C/c2nnc(Cc3ccccc3)o2)c(Cl)c1 [Compound 158, (E)-2-benzyl-5-(2-chloro-4-fluorostyryl)-1,3,4-oxadiazole] | 125.9 °C | > 50 µM | > 50 µM | > 50 µM | > 50 µM | > 50 µM | > 50 µM |
| Clc1cc2c(cc1/C=C/c1nnc(Cc3ccc(Br)cc3)o1)OCO2 [Compound 162, 2-(4-bromobenzyl)-5-(2-(6-chlorobenzo[d][1,3]dioxol-5-yl)vinyl)-1,3,4-oxadiazole] | 186.2 °C | > 50 µM | > 50 µM | > 50 µM | > 50 µM | > 50 µM | 30.5 µM |
| Brc1ccc(Cc2nnc(/C=C/c3ccccc3)o2)cc1 [Compound 165, 2-(4-bromobenzyl)-5-styryl-1,3,4-oxadiazole] | 110.6 °C | 3.76 µM | 2.84 µM | 12.6 µM | 13.5 µM | 10.1 µM | 1.95 µM |
| CC(C)c1ccccc1/C=C/c1nnc(Cc2ccc(Br)cc2F)o1 [Compound 169, 2-(4-bromo-2-fluorobenzyl)-5-(2-isopropylstyryl)-1,3,4-oxadiazole] | 71.9 °C | 2.22 µM | 3.08 µM | 20.3 µM | > 50 µM | 37.2 µM | 2.13 µM |
| Cc1ccccc1/C=C/c1nnc(Cc2ccc(Br)cc2)o1 [Compound 170, 2-(4-bromobenzyl)-5-(2-methylstyryl)-1,3,4-oxadiazole] | 108.5 °C | 2.04 µM | 2.05 µM | 8.53 µM | 6.63 µM | 9.08 µM | 2 µM |
| Clc1ccc(/C=C/c2nnc(Cc3ccc(Br)cc3)o2)cc1 [Compound 171, 2-(4-bromobenzyl)-5-(4-chlorostyryl)-1,3,4-oxadiazole] | 129 °C | 3.63 µM | 4.3 µM | > 50 µM | 49.5 µM | 36.2 µM | 3.74 µM |
| Brc1ccc(Cc2noc(/C=C/c3ccccc3)n2)cc1 [Compound 174, (E)-3-(4-bromobenzyl)-5-styryl-1,2,4-oxadiazole] | 86.7 °C | 1.54 µM | 1.45 µM | 6.53 µM | 5.46 µM | 6.3 µM | 3.78 µM |
| Cc1ccc(F)c(Cc2nnc(/C=C/c3ccc(F)cc3Cl)o2)c1 [Compound 177, (E)-2-(2-chloro-4-fluorostyryl)-5-(2-fluoro-5-methylbenzyl)-1,3,4-oxadiazole] | 136.9 °C | 0.753 µM | 1.07 µM | > 50 µM | > 50 µM | > 50 µM | 0.835 µM |
| Fc1ccc(/C=C/c2nnc(Cc3cccc(Br)c3)o2)c(Cl)c1 [Compound 178, (E)-2-(3-bromobenzyl)-5-(2-chloro-4-fluorostyryl)-1,3,4-oxadiazole] | 121.7 °C | 0.75 µM | 0.95 µM | > 50 µM | > 50 µM | > 50 µM | 0.99 µM |
| Fc1ccc(/C=C/c2nnc(Cc3ccc(Cl)nc3)o2)c(Cl)c1 [Compound 180, (E)-2-(2-chloro-4-fluorostyryl)-5-((6-chloropyridin-3-yl)methyl)-1,3,4-oxadiazole] | 163 °C | 0.51 µM | 0.98 µM | > 50 µM | > 50 µM | > 50 µM | 1.05 µM |
| Cc1ccc(Cc2nnc(/C=C/c3ccc(F)cc3Cl)o2)cc1Br [Compound 181, (E)-2-(3-bromo-4-methylbenzyl)-5-(2-chloro-4-fluorostyryl)-1,3,4-oxadiazole] | 139 °C | 5.56 µM | 8.29 µM | > 50 µM | > 50 µM | > 50 µM | 10.9 µM |
| CC(C)c1cccc(Cc2nnc(/C=C/c3ccc(F)cc3Cl)o2)c1 [Compound 182, (E)-2-(2-chloro-4-fluorostyryl)-5-(3-isopropylbenzyl)-1,3,4-oxadiazole] | 117.3 °C | 0.373 µM | 0.549 µM | > 50 µM | > 50 µM | > 50 µM | 0.617 µM |
| Brc1ccc(Cc2nc(/C=C/c3ccccc3)no2)cc1 [Compound 183, (E)-5-(4-bromobenzyl)-3-styryl-1,2,4-oxadiazole] | 78.4 °C | 0.904 µM | 1.86 µM | > 50 µM | > 50 µM | > 50 µM | 1.33 µM |
| Fc1ccc(/C=C/c2nnc(Cc3ccc(Br)c(F)c3)o2)c(Cl)c1 [Compound 184, (E)-2-(4-bromo-3-fluorobenzyl)-5-(2-chloro-4-fluorostyryl)-1,3,4-oxadiazole] | 166.2 °C | > 50 µM | > 50 µM | > 50 µM | > 50 µM | > 50 µM | > 50 µM |
